Results taken from patent publication US9260435B2, “Substituted imidazopyrazines as Akt kinase inhibitors” (Bayer Intellectual Property GmbH, priority 2012, dated 2016).

What was measured:
[1] = target: His-tagged human recombinant kinase full-length Akt2 (Homo sapiens (Human), UniProt P31751); experiment: Akt2 kinase assay (TR-FRET); type: biochemical; settings: 10 μM ATP, read-out: Akt2, median IC50
Text: Biological Assay 2.0: Akt2 Kinase Assay
Akt2 inhibitory activity of compounds of the present invention was quantified employing the Akt2 TR-FRET assay as described in the following paragraphs.
His-tagged human recombinant kinase full-length Akt2 expressed in insect cells and activated by PDK1 was purchased from Invitrogen (part number PV 3975). As substrate for the kinase reaction the biotinylated peptide biotin-Ahx-KKLNRTLSFAEPG (C-terminus in amide form) was used which can be purchased e.g. from the company Biosynthan GmbH (Berlin-Buch, Germany).
For the assay 50 nl of a 100 fold concentrated solution of the test compound in DMSO was pipetted into a black low volume 384 well microtiter plate (Greiner Bio-One, Frickenhausen, Germany), 2 μl of a solution of Akt2 in assay buffer [50 mM TRIS/HCl pH 7.5, 5 mM MgCl2, 1 mM dithiothreitol, 0.02% (v/v) Triton X-100 (Sigma)] were added and the mixture was incubated for 15 min at 22° C. to allow prebinding of the test compounds to the enzyme before the start of the kinase reaction. Then the kinase reaction was started by the addition of 3 μl of a solution of adenosine-tri-phosphate (ATP, 16.7 μM=>final conc. in the 5 μl assay volume is 10 μM) and substrate (1.67 μM=>final conc. in the 5 μl assay volume is 1 μM) in assay buffer and the resulting mixture was incubated for a reaction time of 60 min at 22° C. The concentration of Akt2 in the assay was adjusted depending of the activity of the enzyme lot and was chosen appropriate to have the assay in the linear range, typical enzyme concentrations were in the range of about 0.2 ng/μl (final conc. in the 5 μl assay volume).
The reaction was stopped by the addition of 5 μl of a solution of HTRF detection reagents (200 nM streptavidine-XL665 [Cisbio] and 1.5 nM anti-phosho-Serine antibody [Millipore, cat. #35-001] and 0.75 nM LANCE Eu-W 1024 labeled anti-mouse IgG antibody [Perkin Elmer]) in an aqueous EDTA-solution (100 mM EDTA, 0.1% (w/v) bovine serum albumin in 50 mM HEPES/NaOH pH 7.5).
The resulting mixture was incubated 1 h at 22° C. to allow the binding of the biotinylated phosphorylated peptide to the streptavidine-XL665 and the antibodies. Subsequently the amount of phosphorylated substrate was evaluated by measurement of the resonance energy transfer from the anti-mouse-IgG-Eu-Chelate to the streptavidine-XL665. Therefore, the fluorescence emissions at 620 nm and 665 nm after excitation at 350 nm was measured in a TR-FRET reader, e.g. a Rubystar (BMG Labtechnologies, Offenburg, Germany) or a Viewlux (Perkin-Elmer). The ratio of the emissions at 665 nm and at […] was taken as the measure for the amount of phosphorylated substrate. The data were normalised (enzyme reaction without inhibitor=0% inhibition, all other assay components but no enzyme=100% inhibition).

[2] = system: MCF-7 breast tumour cell line; experiment: Tumor cell proliferation assay (CellTiter-Glo, 72 h), MCF-7; type: cell-based; settings: Homo sapiens, MCF7, 72 h drug exposure; for inhibition at 1.67 µM: read-out: MCF-7 median inhibition at 1.67 μM (%)
Experimental: (§1) Biological Assay 4.0: Tumor Cell Proliferation Assays
(§2) Compounds were tested in a cell-based assay that measures the capacity of the compounds to inhibit tumour cell proliferation following a 72 h drug exposure. Cell viability is determined using CellTiter-Glow® (CTG, Promega, cat# G7571/2/3). The CellTiter-Glo® Luminescent Cell Viability Assay is a homogeneous method to determine the number of viable cells in culture. Detection is based on using the luciferase reaction to measure the amount of ATP from viable cells. The amount of ATP in cells correlates with cell viability. Within minutes after a loss of membrane integrity, cells lose the ability to synthesize ATP, and endogenous ATPases destroy any remaining ATP; thus the levels of ATP fall precipitously.
(§3) Cells were plated at 3000-5000 cells/well (depending on the cell lines) in 90 μL growth medium on MTPs (Corning; #3603, black plate, clear flat bottom). For each cell line assayed, cells were plated onto a separate plate for determination of […] at t=0 hour and t=72 hour time points. Following overnight incubation at 37° C., chemiluminescence values for the t=0 samples were determined after adding 10 μl medium and 100 μl CTG solution according to manufacture protocol. Plates for the t=72 hour time points were treated with compounds diluted into growth medium at ten times final concentration added in 10 μL to the cell culture plate. Cells were then incubated for 72 hours at 37° C. Chemiluminescence values for the t=72 hour samples were determined. […] Experiments were controlled using a reference compound as standard.
(§4) Preferred compounds of the present invention show in this assay an inhibition of cell growth of cell lines such as the KPL-4 breast cancer cell line and the MCF-7 breast tumour cell line ([…], hormone dependent) with a median IC50 of <10 μM, more preferably, median IC50≦1 μM.

[3] = system: KPL-4 breast cancer cell line; experiment: Tumor cell proliferation assay (CellTiter-Glo, 72 h), KPL-4; type: cell-based; settings: Homo sapiens, KPL4, 72 h drug exposure; for inhibition at 1.67 µM: read-out: KPL-4 median inhibition at 1.67 μM (%)
Experimental: as §1, §2, §3, §4

p-4E-BP1 at T70 = experiment: Cellular p-4E-BP1-T70 assay in KPL-4 cells; type: cell-based; settings: Homo sapiens, KPL4; KPL-4 breast tumour cell line, 2 hours treatment; read-out: P4EBP1-T70 median IC50
Experimental: The molecular mechanism of action was investigated in a set of experiments to assess the inhibition of the PI3K-AKT-mTOR pathway in responsive cell lines such as KPL-4 breast tumour cell line (PIK3CA^H1047R, HER2^O/E and hormone independent). The phospho-substrates of PI3K-AKT-mTOR axis were used as the readouts to reflect pathway inhibition. Cells were seeded at 60-80% confluency per well in 96-well cell culture plates. After overnight incubation at 37° C. 5% CO2, cells were treated with compounds and vehicle at 37° C. for 2 hours. Thereafter, cells were lysed in 150 μl lysis buffer and the levels of phospho-AKT at T308 and S473 and p-4E-BP1 at T70 sites were determined with the corresponding AlphaScreen® SureFire® assay kits (Perkin Elmer: 4E-BP1 Assay Kit Cat # TRG4E2S10K; Akt 1/2/3 p-Ser 473 #TGRA4S500 and Akt 1/2/3 p-Thr 308 #TGRA3S500 as well as IgG detection Kit #6760617M) as described in the manuals. All measurements where at least done in duplicates and confirmed by independent repetition. Alternatively pAKT-S473 was measured using the “Akt Duplex” of the MULTI-SPOT® Assay System (Fa. Meso Scale Discovery, Cat# N41100B-1) following manufacturers instructions. Each assay used 20 μg of protein extract and measured total AKT and p-AKT content simultaneously in one well. All measurements where at least done in duplicates and confirmed by independent repetition. Values for P-AKT are expressed as percentage of P-AKT level compared to total-AKT content of the extracts.

Chain of His-tagged human recombinant kinase full-length Akt2 (P31751 whole entry): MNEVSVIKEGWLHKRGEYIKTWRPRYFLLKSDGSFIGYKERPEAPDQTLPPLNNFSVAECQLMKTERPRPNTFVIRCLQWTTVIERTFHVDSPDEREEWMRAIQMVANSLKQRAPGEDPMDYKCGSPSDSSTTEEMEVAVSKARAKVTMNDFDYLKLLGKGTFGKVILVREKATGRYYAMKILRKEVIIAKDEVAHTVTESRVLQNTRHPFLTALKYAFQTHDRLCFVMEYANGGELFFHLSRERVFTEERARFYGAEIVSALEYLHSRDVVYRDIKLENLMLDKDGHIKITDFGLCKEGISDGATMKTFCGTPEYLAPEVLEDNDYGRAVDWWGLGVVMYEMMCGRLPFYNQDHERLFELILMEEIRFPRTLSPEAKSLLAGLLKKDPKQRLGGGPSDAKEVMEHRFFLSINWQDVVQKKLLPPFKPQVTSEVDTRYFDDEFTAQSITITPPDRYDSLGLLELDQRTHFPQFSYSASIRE

Row | SMILES | IC50 [1] | inhibition at 1.67 µM [2] | IC50 [2] | inhibition at 1.67 µM [3] | IC50 [3] | IC50 (p-4E-BP1 at T70)
1 | Cc1cn2c(-c3ccccc3)c(-c3ccc(C4(N)CCC4)cc3)nc2c(C)n1 [Example 2, 1-[4-(6,8-Dimethyl-3-phenylimidazo[1,2-a]pyrazin-2-yl)phenyl]-cyclobutanamine] | 0.22 µM | 70.8% | 0.72 µM | 68% | 0.71 µM | 1.1 µM
2 | COc1nc(C(N)=O)cn2c(-c3ccccc3)c(-c3ccc(C4(N)CCC4)cc3)nc12 [Example 8, 2-[4-(1-Aminocyclobutyl)phenyl]-8-methoxy-3-phenylimidazo[1,2-a]pyrazine-6-carboxamide] | 0.014 µM | 73.1% | 0.27 µM | 83.6% | 0.15 µM | 0.018 µM
3 | CCc1cn2c(-c3ccccc3)c(-c3ccc(C4(N)CCC4)cc3)nc2c(OC)n1 [Example 4, 1-[4-(6-Ethyl-8-methoxy-3-phenylimidazo[1,2-a]pyrazin-2-yl)phenyl]cyclobutanamine] | 0.034 µM | 72.4% | 0.85 µM | 64.4% | 1.2 µM | 0.38 µM
4 | COC(=O)c1cn2c(-c3ccccc3)c(-c3ccc(C4(N)CCC4)cc3)nc2c(OC)n1 [Example 7, Methyl 2-[4-(1-aminocyclobutyl)phenyl]-8-methoxy-3-phenylimidazo[1,2-a]pyrazine-6-carboxylate] | 0.086 µM | 72.3% | 0.42 µM | 22% | 5.5 µM | 0.043 µM
5 | NC(=O)c1cn2c(-c3ccccc3)c(-c3ccc(C4(N)CCC4)cc3)nc2cn1 [Example 6, 2-[4-(1-Aminocyclobutyl)phenyl]-3-phenylimidazo[1,2-a]pyrazine-6-carboxamide] | 0.097 µM | 57.3% | 1.1 µM | 79.5% | 0.29 µM | 0.018 µM
6 | COc1nc(Br)cn2c(-c3ccccc3)c(-c3ccc(C4(N)CCC4)cc3)nc12 [Example 3, 1-[4-(6-Bromo-8-methoxy-3-phenylimidazo[1,2-a]pyrazin-2-yl)phenyl]cyclobutanamine] | 0.033 µM | 46.2% | 1.7 µM | 57% | 1.7 µM | 1.4 µM
